{"source": "paper doi:10.1101/2025.01.28.635286v2", "about": "(bioRxiv, 2025)", "format_in_all_cases": "cell-based, human", "key": {"hCMEC/D3 monolayers": {"tested_on": "hCMEC/D3 monolayers", "assay": "Confocal microscopy of FITC-Aβ42 uptake in hCMEC/D3 monolayers", "settings": "TNF-alpha 20 ng/mL"}, "[1]": {"tested_on": "phospho-cofilin (serine 3)", "assay": "Western blot of phospho-cofilin in hCMEC/D3 monolayers", "settings": "TNF-alpha 20 ng/mL, 24 h, western blot normalized to GAPDH, p<0.05"}, "phospho-dynamin": {"tested_on": "phospho-dynamin", "assay": "Western blot of phospho-dynamin in hCMEC/D3 monolayers", "settings": "TNF-alpha 20 ng/mL, 24 h, western blot normalized to GAPDH, p<0.05"}, "phospho-IRS (serine 307)": {"tested_on": "phospho-IRS (serine 307)", "assay": "Western blot of phospho-IRS in hCMEC/D3 monolayers", "settings": "TNF-alpha 20 ng/mL, 24 h, immunoblot normalized to GAPDH, p<0.01"}}, "data": [{"substance": "tumor necrosis factor-alpha [TNF-alpha]", "values": [{"measurement": "FITC-Aβ42 fluorescence by confocal microscopy in comparison to control cells", "setting": "hCMEC/D3 monolayers", "result": "increased FITC-Aβ42 fluorescence"}, {"measurement": "decrease of phospho-cofilin expression compared to control cells", "setting": "[1]", "result": "approximately 2 fold"}, {"measurement": "increase in phospho-dynamin levels compared to control cells", "setting": "phospho-dynamin", "result": "~3", "unit": "fold"}, {"measurement": "increase in phospho-IRS expression (serine 307)", "setting": "phospho-IRS (serine 307)", "result": 3, "unit": "fold"}]}]}
